Patent EP4603105A1, “PHARMACEUTICAL COMPOSITION CONTAINING CYCLIC COMPOUND HAVING SELECTIVE KRAS INHIBITORY EFFECT AGAINST HRAS AND NRAS” (CHUGAI SEIYAKU KABUSHIKI KAISHA, priority 2022, dated 2024)
Like-named read-outs stand apart in the source and are kept apart here.

Legend:
[1] = target: GDP-bound KRAS wild-type protein (Homo sapiens, UniProt P01116); assay: Binding to KRAS by surface plasmon resonance (SPR), dissociation constant KD
Method in brief: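 Measured at 30°C: SPR with GDP-loaded, E. coli-expressed biotin-Avi RAS captured (~100–300 RU), ascending 75 s compound injections, HBS pH 7.4 with GDP, MgCl2, 4% DMSO. KD from 1:1 fit.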

[2] = target: GDP-bound NRAS wild-type protein (Homo sapiens, UniProt P01111); assay: Binding to NRAS by surface plasmon resonance (SPR), KD and KD ratio to KRAS
Sequence of GDP-bound NRAS wild-type protein (P01111 whole entry): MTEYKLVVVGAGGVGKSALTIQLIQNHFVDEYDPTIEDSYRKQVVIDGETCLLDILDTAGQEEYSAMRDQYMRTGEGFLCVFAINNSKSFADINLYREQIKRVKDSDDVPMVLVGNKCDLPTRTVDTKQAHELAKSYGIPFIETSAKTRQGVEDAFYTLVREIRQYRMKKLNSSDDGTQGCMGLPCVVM
Method in brief: (§1)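 Recombinant RAS proteins bearing a biotinylated Avi tag and loaded with GDP served as the captured ligand, recaptured fresh every cycle. Binding responses were referenced to an uncoated surface and a buffer-only blank cycle. Dissociation constants were obtained by 1:1 model fitting at 30°C.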

HRAS wild-type protein = HRAS wild-type protein (Homo sapiens, UniProt P01112); assay: Binding to HRAS by surface plasmon resonance (SPR), KD and KD ratio to KRAS
Sequence of HRAS wild-type protein (P01112 whole entry): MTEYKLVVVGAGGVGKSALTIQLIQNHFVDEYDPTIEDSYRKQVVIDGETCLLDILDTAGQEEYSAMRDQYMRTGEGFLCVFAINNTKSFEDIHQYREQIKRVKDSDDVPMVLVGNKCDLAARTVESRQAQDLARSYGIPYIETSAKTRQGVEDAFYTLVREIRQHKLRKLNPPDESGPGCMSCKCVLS
Method in brief: as §1

[3] = tested on: human lung cancer strain NCI-H441; assay: NCI-H441 cell proliferation inhibitory activity (CellTiter-Glo, 4 days); format: cell-based; settings: read-out: NCl-H441 IC50
Method in brief: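 Signal came from […] measured per well once the reagent was added. Beforehand, cells were cultured at 37°C and 5% carbon dioxide on a compound series serially diluted in dimethyl sulfoxide.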

[4] = ratio of KD for GDP-bound NRAS wild-type protein to KD for KRAS
[5] = ratio of KD for HRAS wild-type protein to KD for KRAS
[6] = Single Cycle Kinetics, 1:1 binding model
[7] = ratio of KD with respect to GDP-bound NRAS wild-type protein to KD with respect to KRAS
[8] = ratio of KD with respect to HRAS wild-type protein to KD with respect to KRAS
[9] = 50% proliferation inhibitory concentration, four days

Sequence of GDP-bound KRAS wild-type protein (P01116 1-188 isoform P01116-2): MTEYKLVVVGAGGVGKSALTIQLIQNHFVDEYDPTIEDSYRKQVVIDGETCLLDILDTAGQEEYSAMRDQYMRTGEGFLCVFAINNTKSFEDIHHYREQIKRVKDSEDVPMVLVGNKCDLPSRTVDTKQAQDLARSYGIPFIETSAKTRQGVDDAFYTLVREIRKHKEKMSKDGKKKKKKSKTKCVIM

Compound | Kd ([1]; Single Cycle Kinetics) [nM] | NRAS /KRAS [2, 4] | HRAS /KRAS (HRAS wild-type protein; [5]) | IC50 ([3]; NCI-H441 cells, 4 days) [nM] | Kd ([1]; 1:1 binding model) [nM] | Kd [1, 6] [nM] | NRAS /KRAS [2, 7] | HRAS /KRAS (HRAS wild-type protein; [8]) | IC50 [3, 9] [nM]
CCC[C@H]1C(=O)N[C@@H]([C@@H](C)CC)C(=O)N(C)CC(=O)N(C)[C@H]2C/C=C\CCN(C2=O)[C@@H](Cc2ccc(C(F)(F)F)cc2)C(=O)N(C)CC(=O)N[C@@H](CCc2ccc(C(F)(F)F)c(OC)c2)C(=O)N2CC3(CC3)C[C@H]2C(=O)N(C)C2(CCC2)C(=O)N(C)[C@@H](C(CC)CC)C(=O)N(C)[C@H](C(=O)N(C)C)CC(=O)N1C [PP3361] | 1.5 | A (a compound having 10 or more and less than 20 is denoted as A) | A (a compound having 10 or more and less than 20 is denoted as A) | 4.7 |  |  |  |  | 
CCC[C@H]1C(=O)N[C@@H]([C@@H](C)CC)C(=O)N(C)CC(=O)N(C)[C@H]2C/C(F)=C\CCN(C2=O)[C@@H](Cc2ccc(C)cc2)C(=O)N(C)CC(=O)N[C@@H](CCc2cc(F)c(C(F)(F)F)c(F)c2)C(=O)N2C[C@H](OCC)C[C@H]2C(=O)N(C)C2(CCC2)C(=O)N(C)[C@@H](C2CCCC2)C(=O)N(C)[C@H](C(=O)N(C)C)CC(=O)N1C [PP3528] | 0.062 | B (a compound having 3 or more and less than 10 is denoted as B) | B (a compound having 3 or more and less than 10 is denoted as B) | 3.7 |  |  |  |  | 
CCO[C@@H]1C[C@H]2C(=O)NC3(CC(C)(C)C3)C(=O)N(C)[C@@H](C3CCCC3)C(=O)N(C)[C@H](C(=O)N(C)CC)CC(=O)N(C)[C@@H]([C@@H](C)OC)C(=O)N[C@@H]([C@@H](C)CC)C(=O)N3CCC[C@H]3C(=O)N(C)[C@H]3C/C=C\CCN(C3=O)[C@@H](Cc3ccc(C(F)(F)F)cc3)C(=O)N(C)CC(=O)N[C@@H](CCc3ccc(C(F)(F)F)c(Cl)c3)C(=O)N2C1 [PP3174] | 1.1 | AA (a compound having 20 or more is denoted as AA) | A (a compound having 10 or more and less than 20 is denoted as A) | 105 |  |  |  |  | 
CCC[C@H]1C(=O)N[C@@H](CC(C)C)C(=O)N2C[C@@H](OC)C[C@H]2C(=O)N(C)[C@H]2C/C=C\CCN(C2=O)[C@@H](Cc2ccc(C)cc2)C(=O)N(C)CC(=O)N[C@@H](CCc2cc(F)c(C(F)(F)F)c(F)c2)C(=O)N2C[C@H](OCC)C[C@H]2C(=O)NC2(CC(C)(C)C2)C(=O)N(C)[C@@H](C2CCCC2)C(=O)N(C)[C@H](C(=O)N(C)C)CC(=O)N1C [PP2553] |  | A (a compound having 10 or more and less than 20 is denoted as A) | B (a compound having 3 or more and less than 10 is denoted as B) | 121 | 3.4 |  |  |  | 
CCO[C@@H]1C[C@H]2C(=O)NC3(CC(C)(C)C3)C(=O)N(C)[C@@H](C3CCCC3)C(=O)N(C)[C@H](C(=O)N(C)C)CC(=O)N[C@@H](CC(C)C)C(=O)N[C@@H]([C@@H](C)CC)C(=O)N(C)CC(=O)N(C)[C@H]3C/C=C\CCN(C3=O)[C@@H](Cc3ccc(C(F)(F)F)cc3)C(=O)N(C)CC(=O)N[C@@H](CCc3ccc(C(F)(F)F)c(OC)c3)C(=O)N2C1 [PP3445] | 0.13 | A (a compound having 10 or more and less than 20 is denoted as A) | A (a compound having 10 or more and less than 20 is denoted as A) | 20.2 |  |  |  |  | 
CCO[C@@H]1C[C@H]2C(=O)NC3(CCC3)C(=O)N(C)[C@@H](C3CCCC3)C(=O)N(C)[C@H](C(=O)N(C)C)CC(=O)N(C)[C@@H](CC(C)C)C(=O)N[C@@H]([C@@H](C)CC)C(=O)N(C)CC(=O)N(C)[C@H]3C/C=C\CCN(C3=O)[C@@H](Cc3ccc(C(F)(F)F)cc3)C(=O)N(C)CC(=O)N[C@@H](CCc3ccc(C(F)(F)F)c(OC)c3)C(=O)N2C1 [PP1245] |  |  |  |  |  | 0.06 | A (a compound having 10 or more and less than 20 is denoted as A) | B (a compound having 3 or more and less than 10 is denoted as B) | 3.7
CCO[C@@H]1C[C@H]2C(=O)NC3(CCC3)C(=O)N(C)[C@@H](C3CCCC3)C(=O)N(C)[C@H](C(=O)N(C)C)CC(=O)N(C)[C@@H](COCC(F)(F)F)C(=O)N[C@@H]([C@@H](C)CC)C(=O)N(C)CC(=O)N(C)[C@H]3C/C=C\CCN(C3=O)[C@@H](Cc3ccc(C(F)(F)F)cc3)C(=O)N(C)CC(=O)N[C@@H](CCc3cc(F)c(C(F)(F)F)c(F)c3)C(=O)N2C1 [PP1267] |  |  |  |  |  | 0.046 | A (a compound having 10 or more and less than 20 is denoted as A) | A (a compound having 10 or more and less than 20 is denoted as A) | 10.8
CCC[C@H]1C(=O)N[C@@H](CC(C)C)C(=O)N(CCOC)CC(=O)N(C)[C@H]2C/C=C\CCN(C2=O)[C@@H](Cc2ccc(C)cc2)C(=O)N(C)CC(=O)N[C@@H](CCc2ccc(C(F)(F)F)c(OC)c2)C(=O)N2C[C@H](OCC)C[C@H]2C(=O)NC2(CCC2)C(=O)N(C)[C@@H](C2CCCC2)C(=O)N(C)[C@H](C(=O)N(C)C)CC(=O)N1C [PP2542] |  | B (a compound having 3 or more and less than 10 is denoted as B) | B (a compound having 3 or more and less than 10 is denoted as B) | 394 | 4.6 |  |  |  | 
CCC[C@H]1C(=O)N[C@@H]([C@@H](C)CC)C(=O)N2CCCC[C@H]2C(=O)N(C)[C@H]2C/C=C\CCN(C2=O)[C@@H](Cc2ccc(C)cc2)C(=O)N(C)CC(=O)N[C@@H](CCc2cc(F)c(C(F)(F)F)c(F)c2)C(=O)N2C[C@H](OCC)C[C@H]2C(=O)N(C)C2(CCC2)C(=O)N(C)[C@@H](C2CCCC2)C(=O)N(C)[C@H](C(=O)N(C)C)CC(=O)N1C [PP3274] | 0.81 | A (a compound having 10 or more and less than 20 is denoted as A) | B (a compound having 3 or more and less than 10 is denoted as B) | 25.1 |  |  |  |  | 
CCC[C@H]1C(=O)N[C@@H]([C@@H](C)CC)C(=O)N(C)CC(=O)N(C)[C@H]2C/C=C\CCN(C2=O)[C@@H](Cc2ccc(C(F)(F)F)cc2)C(=O)N(C)CC(=O)N[C@@H](CCc2ccc(C(F)(F)F)c(Cl)c2)C(=O)N2CC[C@H](OC)[C@H]2C(=O)N(C)C2(CCC2)C(=O)N(C)[C@@H](C2CCCC2)C(=O)N(C)[C@H](C(=O)N(C)C)CC(=O)N1C [PP3231] | 0.064 | A (a compound having 10 or more and less than 20 is denoted as A) | A (a compound having 10 or more and less than 20 is denoted as A) | 7.4 |  |  |  |  | 
C#CC[C@H]1C(=O)N[C@@H]([C@@H](C)CC)C(=O)N(C2CC2)CC(=O)N(C)[C@H]2C/C=C\CCN(C2=O)[C@@H](Cc2ccc(C(F)(F)F)cc2)C(=O)N(C)CC(=O)N[C@@H](CCc2cc(F)c(C(F)(F)F)c(F)c2)C(=O)N2C[C@H](OCC)C[C@H]2C(=O)N(C)C2(CCC2)C(=O)N(C)[C@@H](C2CCCC2)C(=O)N(C)[C@H](C(=O)N(C)C)CC(=O)N1C [PP3244] | 0.1 | A (a compound having 10 or more and less than 20 is denoted as A) | A (a compound having 10 or more and less than 20 is denoted as A) | 1.9 |  |  |  |  | 
CCO[C@@H]1C[C@H]2C(=O)NC3(CC(C)(C)C3)C(=O)N(C)[C@@H](C3CCCC3)C(=O)N(C)[C@H](C(=O)N(C)C)CC(=O)N(C)[C@@H](COC)C(=O)N[C@@H]([C@@H](C)CC)C(=O)N(C3CC3)CC(=O)N(C)[C@H]3C/C=C\CCN(C3=O)[C@@H](CC3CCCCC3)C(=O)N(C)CC(=O)N[C@@H](CCc3ccc(Cl)c(Cl)c3)C(=O)N2C1 [PP2563] |  | A (a compound having 10 or more and less than 20 is denoted as A) | A (a compound having 10 or more and less than 20 is denoted as A) | 108 | 2.3 |  |  |  | 
CCO[C@@H]1C[C@H]2C(=O)NC3(CCC3)C(=O)N(C)[C@@H](C3CCCC3)C(=O)N(C)[C@H](C(=O)N3CCOCC3)CC(=O)N(C)[C@@H](CC)C(=O)N[C@@H]([C@@H](C)CC)C(=O)N(C)CC(=O)N(C)[C@H]3C[C@@H](C)[C@@H](C)CN(C3=O)[C@@H](Cc3ccc(C(F)(F)F)cc3)C(=O)N(C)CC(=O)N[C@@H](CCc3ccc(C(F)(F)F)c(Cl)c3)C(=O)N2C1 [PP1360] |  |  |  |  |  | 0.055 | A (a compound having 10 or more and less than 20 is denoted as A) | B (a compound having 3 or more and less than 10 is denoted as B) | 4.9
CCO[C@@H]1C[C@H]2C(=O)NC3(CCCC3)C(=O)N(C)[C@@H](C3CCCC3)C(=O)N(C)[C@H](C(=O)N(C)C)CC(=O)N(C)[C@@H]([C@@H](C)OC)C(=O)N[C@@H]([C@@H](C)CC)C(=O)N3CCC[C@H]3C(=O)N(C)[C@H]3C/C=C\CCN(C3=O)[C@@H](Cc3ccc(C(F)(F)F)cc3)C(=O)N(C)CC(=O)N[C@@H](CCc3cc(F)c(C(F)(F)F)c(F)c3)C(=O)N2C1 [PP3477] | 0.51 | A (a compound having 10 or more and less than 20 is denoted as A) | A (a compound having 10 or more and less than 20 is denoted as A) | 44.7 |  |  |  |  | 
CCCO[C@@H]1C[C@H]2C(=O)NC3(CC(C)(C)C3)C(=O)N(C)[C@@H](C3CCCC3)C(=O)N(C)[C@H](C(=O)N(C)CC)CC(=O)N[C@@H](COCC)C(=O)N[C@@H]([C@@H](C)CC)C(=O)N3C[C@@H](F)C[C@H]3C(=O)N(C)[C@H]3C/C=C\CCN(C3=O)[C@@H](Cc3ccc(C)cc3)C(=O)N(C)CC(=O)N[C@@H](CCc3ccc(C(F)(F)F)c(OC)c3)C(=O)N2C1 [PP3443] | 0.75 | A (a compound having 10 or more and less than 20 is denoted as A) | A (a compound having 10 or more and less than 20 is denoted as A) | 73.5 |  |  |  |  | 
